The source of these data is patent US9302986B2, “Substituted 3-haloallylamine inhibitors of ASSAO and uses thereof” (Boehringer Ingelheim International GmbH, priority 2012, dated 2016).

The target in one assay is Recombinant human MAO-B (Homo sapiens (Human), UniProt P27338). Description: Inhibition of human recombinant MAO-B. In kind it is biochemical. The conditions noted are these: benzylamine 100 μM. Here is the method:
This vector containing human SSAO/VAP-1 residues was transfected into CHO-K1 glycosylation mutant cell line, Lec 8. A clone stably expressing human SSAO/VAP-1 was isolated and cultured in large scale. Active human SSAO/VAP-1 was purified and recovered using immunoaffinity chromatography. This was used as source for SSAO/VAP-1 activity. A high-throughput colorimetric assay was developed using either 96 or 384 well format. Briefly, in a standard 96 well plate assay 50 μL of purified human SSAO/VAP-1 (0.25 μg/mL) in 0.1 M NaPO4 buffer (pH 7.4) was added into each well.
The specificity of invention compounds was tested by determining their ability to inhibit MAO-B activities in vitro. Recombinant human MAO-B (0.06 mg/mL; Sigma Aldrich) was used as source of MAO-B enzyme activities.

Another assay addresses Recombinant human DAO (Homo sapiens (Human), UniProt P19801). Put plainly: Inhibition of human recombinant diamine oxidase. The assay is classed as biochemical. The conditions noted are these: putrescine 200 μM.
Assay [1] deals with Endogenous SSAO/VAP-1 in rat fat (Rattus norvegicus (Rat), UniProt O08590). Put plainly: Inhibition of SSAO/VAP-1 in rat fat homogenate. In kind it is biochemical. The conditions noted are these: benzylamine 30 μM. Here is the method:
Abdominal fat from BALB/c mice, Wistar or Sprague Dawley rats, which are tissues enriched with SSAO/VAP-1-were surgically removed. For every gram of animal abdominal fat tissue, 1 mL of 0.1 M NaPO4 buffer (pH 7.4) was added. Tissues were homogenized using IKA Ultra-Turrax T 10 homogenizer for 3 min, homogenate was centrifuged for 15 min at 3000×g. The middle layer (clear supernatant) was removed without disturbing the top layer (high fat content) or the debris on the bottom of the tube. SSAO/VAP-1 activity was determined by checking the fluorescent signal. Km/Vmax values were determined and the fat homogenate was aliquoted and stored at −80 C until assays were performed.

The target in the next assay is recombinant human VAP-1 (Homo sapiens, UniProt Q16853). Description: Inhibition of human recombinant SSAO/VAP-1 expressed in HMEC cells (cell lysate).
Assay [2] deals with LPS-induced neuroinflammation. Description: Parkinson's disease Model A: systemic exposure to LPS. The conditions noted are these: 2 mg/kg ip. In kind it is in vivo, Long Evans rats. The method, then:
Parkinson's disease is a pathological, age-related neurodegenerative disorder, characterized by a specific and progressive degeneration of dopaminergic neurons.
Long Evans rats were dosed intraperitoneal (ip) with 2 mg/kg of Compound 9 or vehicle 1 h before the first (time 0 h) and the third (time 24 h) injections of LPS. At time 0 the animals received a dose of 10 mg/kg of LPS. At time 6 and 24 h the animals were dosed with 3 mg/kg of LPS solution, ip. 30 h after the first LPS injection, the animals received ip injections of lethabarb and were transcardially perfused with 400 ml. PBS at 4° C. followed by 400 ml of 4% paraformaldehyde (PFA). The brains were post fixed overnight in 4% PFA at 4° C. followed by 20% sucrose solution for 24 h. 30 μm sections were collected and stained for immunofluorescence, immunohistochemistry and western blot analysis.

Assay [3] concerns LPS-induced lung inflammation. Put plainly: Acute lung inflammation in the LPS driven model. As to conditions: 2 mg/kg.
Procedure: The incision was closed with wound clips and the mice returned to cages.
Six hours after LPS/saline injection, the mice were anesthetized, the wound clips removed, the trachea was cannulated with a 23G blunt needle, and the lungs lavaged eight times with 0.5 ml heparinized saline. The lavage was pooled, gently inverted, and a sample retained for white blood cell (WBC) differential analysis. The remainder of the lavage was centrifuged, the supernatants used for cytokine analysis.

The structures appear in SMILES notation. Structures can show the parent of a compound that is named as a salt.

Recombinant human DAO, sequence (P19801 20-751): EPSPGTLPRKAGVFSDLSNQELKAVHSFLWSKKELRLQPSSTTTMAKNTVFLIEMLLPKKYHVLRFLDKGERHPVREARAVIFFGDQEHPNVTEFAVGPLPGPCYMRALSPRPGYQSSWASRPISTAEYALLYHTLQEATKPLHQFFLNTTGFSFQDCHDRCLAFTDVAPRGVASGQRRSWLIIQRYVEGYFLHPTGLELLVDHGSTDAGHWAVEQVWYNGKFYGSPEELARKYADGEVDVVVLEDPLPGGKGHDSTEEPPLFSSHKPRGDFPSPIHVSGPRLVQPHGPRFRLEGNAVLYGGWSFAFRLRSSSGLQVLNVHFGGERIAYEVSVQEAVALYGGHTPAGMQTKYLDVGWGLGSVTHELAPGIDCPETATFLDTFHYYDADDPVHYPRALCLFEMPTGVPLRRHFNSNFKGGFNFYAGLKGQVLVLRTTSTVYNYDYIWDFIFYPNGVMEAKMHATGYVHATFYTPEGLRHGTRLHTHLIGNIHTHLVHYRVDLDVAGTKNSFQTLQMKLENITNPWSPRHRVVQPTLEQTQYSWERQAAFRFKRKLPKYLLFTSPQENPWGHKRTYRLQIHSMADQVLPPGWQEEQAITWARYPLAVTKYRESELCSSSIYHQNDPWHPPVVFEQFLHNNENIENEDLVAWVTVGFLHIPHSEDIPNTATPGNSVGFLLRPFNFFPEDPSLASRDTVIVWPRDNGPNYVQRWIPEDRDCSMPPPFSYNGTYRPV
Recombinant human MAO-B, sequence (P27338 whole entry): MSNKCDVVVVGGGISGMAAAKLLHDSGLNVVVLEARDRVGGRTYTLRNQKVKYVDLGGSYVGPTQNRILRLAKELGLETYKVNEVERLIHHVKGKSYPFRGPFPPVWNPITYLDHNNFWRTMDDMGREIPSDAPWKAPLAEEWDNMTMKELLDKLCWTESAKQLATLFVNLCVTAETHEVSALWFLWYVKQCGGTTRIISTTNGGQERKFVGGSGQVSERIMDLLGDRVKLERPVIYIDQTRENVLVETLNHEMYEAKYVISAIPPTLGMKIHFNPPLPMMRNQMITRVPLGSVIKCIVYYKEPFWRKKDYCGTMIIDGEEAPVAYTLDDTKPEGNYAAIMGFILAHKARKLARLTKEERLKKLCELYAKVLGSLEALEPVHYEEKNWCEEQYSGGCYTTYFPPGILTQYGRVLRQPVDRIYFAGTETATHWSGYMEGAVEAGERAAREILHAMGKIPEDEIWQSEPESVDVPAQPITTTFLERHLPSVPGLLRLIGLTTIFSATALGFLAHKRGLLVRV
Endogenous SSAO/VAP-1 in rat fat, sequence (O08590 whole entry): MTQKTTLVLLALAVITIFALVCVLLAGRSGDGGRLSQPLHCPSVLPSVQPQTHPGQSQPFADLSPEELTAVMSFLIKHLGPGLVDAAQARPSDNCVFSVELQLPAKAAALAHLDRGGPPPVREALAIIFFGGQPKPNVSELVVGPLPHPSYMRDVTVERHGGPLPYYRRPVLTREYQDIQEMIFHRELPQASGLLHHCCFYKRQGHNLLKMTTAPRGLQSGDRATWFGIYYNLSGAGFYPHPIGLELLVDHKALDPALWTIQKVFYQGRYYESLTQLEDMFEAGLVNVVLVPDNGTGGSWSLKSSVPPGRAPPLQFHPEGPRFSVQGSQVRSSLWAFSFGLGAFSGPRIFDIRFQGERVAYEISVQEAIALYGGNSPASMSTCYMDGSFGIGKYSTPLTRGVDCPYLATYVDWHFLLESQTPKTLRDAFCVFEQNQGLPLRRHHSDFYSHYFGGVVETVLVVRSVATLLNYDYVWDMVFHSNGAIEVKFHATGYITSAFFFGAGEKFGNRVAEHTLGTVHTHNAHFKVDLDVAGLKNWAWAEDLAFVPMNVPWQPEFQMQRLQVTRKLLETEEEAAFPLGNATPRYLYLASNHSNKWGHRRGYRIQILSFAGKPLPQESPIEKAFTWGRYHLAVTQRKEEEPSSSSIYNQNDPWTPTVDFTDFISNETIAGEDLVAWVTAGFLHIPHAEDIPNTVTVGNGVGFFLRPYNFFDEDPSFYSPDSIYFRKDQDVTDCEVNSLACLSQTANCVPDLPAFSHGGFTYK
Procedure for recombinant human VAP-1: A clone stably expressing human SSAO/VAP-1 was selected and was stored in liquid nitrogen until cell lysate was required for colorimetric assay. Briefly, HMEC cell expressing human SSAO/VAP-1 were grown in several 10 cm petri dishes, once the cells reached 100% confluency, cells were harvested and homogenates were prepared. Cells were washed twice with 5 mL of chilled HES buffer (20 mM HEPES, 1 mM EDTA, 250 mM sucrose, pH 7.4). HES buffer containing 1× protease inhibitor (Sigma Aldrich) and added and cells were incubated on ice for 3 min. Buffer was removed and cells were scraped and transferred to a centrifuge tube. Cell lysates were prepared by passing through 23 G needle for, 10 times and followed by 27 G needle for 10 times. Alternatively the cell lysates were prepared by using IKA Ultra-Turrax T 10 homogenizer for 3 min for every 10 mL of cell suspensions. Cells were then spun for 5 min at 300×g. The clear supernatant was transferred to new centrifuge tube and stored at −80° C. until colorimetric assay was performed. Prior to the assay, 0.5 mM pargyline was added in order to inhibit any residue MAO activities. […] Briefly, 50 μL of cell lysate was incubated with test compounds for 30 min at 37° C.

Consider `CCN(CC)C(=O)c1ccc(OC/C(=C/F)CN)cc1` [Compound 24, (E)-4-(2-(Aminomethyl)-3-fluoroallyloxy)-N,N-diethylbenzamide], for which the IC50 is > 1000 nM on Recombinant human MAO-B, > 10000 nM on Recombinant human DAO and < 100 nM in assay [1].

Take `CN(C)C(=O)c1ccc(OC/C(=C\F)CN)c(Br)c1` [Compound 20, (Z)-4-(2-(Aminomethyl)-3-fluoroallyloxy)-3-bromo-N,N-dimethylbenzamide]: the IC50 at Recombinant human MAO-B was > 1000 nM; on Recombinant human DAO it was < 1000 nM.

Regarding `CC(C)NS(=O)(=O)c1ccc(OC/C(=C\F)CN)cc1` [Compound 33, (Z)-4-(2-(Aminomethyl)-3-fluoroallyloxy)-N-isopropylbenzenesulfonamide], the IC50 at Recombinant human MAO-B was > 10000 nM; at Recombinant human DAO, < 1000 nM; in assay [1], < 100 nM.

`CCNS(=O)(=O)c1ccc(OC/C(=C\F)CN)cc1` [Compound 31, (Z)-4-(2-(Aminomethyl)-3-fluoroallyloxy)-N-ethylbenzenesulfonamide]: the IC50 on Recombinant human MAO-B was > 1000 nM; on Recombinant human DAO it was < 1000 nM; in assay [1], < 100 nM.

With `COc1cc(C(=O)N(C)C)ccc1OCC(=CF)CN` [Compound 7, 4-(2-(Aminomethyl)-3-fluoroallyloxy)-3-methoxy-N,N-dimethylbenzamide], the IC50 is > 10000 nM on Recombinant human MAO-B, < 1000 nM at Recombinant human DAO and < 100 nM on recombinant human VAP-1.

For `CC(C)NS(=O)(=O)c1ccc(OC/C(=C/F)CN)cc1` [Compound 32, (E)-4-(2-(Aminomethyl)-3-fluoroallyloxy)-N-isopropylbenzenesulfonamide], the results for the IC50 (on Recombinant human MAO-B; on Recombinant human DAO; in assay [1]) were > 10000 nM, > 10000 nM and < 100 nM, respectively.

Consider `NC/C(=C\F)COc1ccc(C(N)=O)cc1` [Compound 3, (E)-4-(2-(Aminomethyl)-3-fluoroallyloxy)benzamide], for which the IC50 is > 10000 nM at Recombinant human MAO-B, > 1000 nM at Recombinant human DAO, < 100 nM at recombinant human VAP-1 and < 100 nM in assay [1].

Take `CN(C)C(=O)c1ccc(SCC(=CF)CN)cc1` [Compound 8, 4-(2-(Aminomethyl)-3-fluoroallylthio)-N,N-dimethylbenzamide]: the values for the IC50 at Recombinant human MAO-B and on recombinant human VAP-1 were > 1000 nM and < 100 nM, respectively.

With `CNS(=O)(=O)c1ccc(OC/C(=C/F)CN)cc1` [Compound 28, (E)-4-(2-(Aminomethyl)-3-fluoroallyloxy)-N-methylbenzenesulfonamide], the IC50 was > 10000 nM at Recombinant human MAO-B, > 10000 nM on Recombinant human DAO and < 100 nM in assay [1].

Consider `CN(C)C(=O)c1ccc(OC/C(=C\F)CN)cc1` [Compound 18, (Z)-4-(2-(Aminomethyl)-3-fluoroallyloxy)-N,N-dimethylbenzamide], for which the IC50 on Recombinant human MAO-B was > 100 nM; at Recombinant human DAO, < 100 nM; on recombinant human VAP-1, < 100 nM; in assay [1] it was < 100 nM.

Consider `CN(C)C(=O)c1ccc(OC/C(=C/F)CN)cc1` [Compound 13, hydrochloride], for which the IC50 at Recombinant human MAO-B is > 100 nM; at Recombinant human DAO, > 1000 nM; on recombinant human VAP-1, < 100 nM; in assay [1], < 100 nM.

Take `CN(C)S(=O)(=O)c1cccc(OC/C(=C\F)CN)c1` [Compound 15, (Z)-3-(2-(Aminomethyl)-3-fluoroallyloxy)-N,N-dimethylbenzenesulfonamide]: the 50% inhibitory concentration (IC50) on Recombinant human MAO-B was > 100000 nM; in assay [1], < 100 nM.

On to `CCNS(=O)(=O)c1ccc(OC/C(=C/F)CN)cc1` [Compound 30, (E)-4-(2-(Aminomethyl)-3-fluoroallyloxy)-N-ethylbenzenesulfonamide], for which the IC50 on Recombinant human MAO-B was > 10000 nM; on Recombinant human DAO, > 10000 nM; in assay [1] it was < 100 nM.

`CN(C)C(=O)c1ccc(OC/C(=C\F)CN)c(F)c1` [Compound 4, (Z)-4-(2-(Aminomethyl)-3-fluoroallyloxy)-3-fluoro-N,N-dimethylbenzamide]: the half-inhibitory concentration (IC50) at Recombinant human MAO-B is > 100 nM; at Recombinant human DAO, < 1000 nM; in assay [1], < 100 nM.

Take `CN(C)C(=O)c1ccc(OC/C(=C\F)CN)c(Cl)c1` [Compound 6, (Z)-4-(2-(Aminomethyl)-3-fluoroallyloxy)-3-chloro-N,N-dimethylbenzamide]: the IC50 was > 1000 nM at Recombinant human MAO-B and < 1000 nM at Recombinant human DAO.

For `CN(C)S(=O)(=O)c1ccc(OC/C(=C\F)CN)cc1` [Compound 10, (Z)-4-(2-(Aminomethyl)-3-fluoroallyloxy)-N,N-dimethylbenzenesulfonamide], the IC50 on Recombinant human MAO-B was > 10000 nM; at Recombinant human DAO, > 1000 nM; in assay [1], < 100 nM.

As for `CN(C)S(=O)(=O)c1ccc(OC/C(=C/F)CN)cc1` [Compound 14, (E)-4-(2-(Aminomethyl)-3-fluoroallyloxy)-N,N-dimethylbenzenesulfonamide], the IC50 was > 10000 nM on Recombinant human MAO-B, > 10000 nM on Recombinant human DAO and < 100 nM in assay [1].

For the compound `NC/C(=C/F)COc1ccc(C(N)=O)cc1` [Compound 2, (Z)-4-(2-(Aminomethyl)-3-fluoroallyloxy)benzamide], the IC50 at Recombinant human MAO-B is > 1000 nM; at Recombinant human DAO, < 100 nM; on recombinant human VAP-1 it was < 100 nM; in assay [1], < 100 nM.

On to `NC/C(=C/F)COc1ccc(S(N)(=O)=O)cc1` [Compound 9, (Z)-4-(2-(Aminomethyl)-3-fluoroallyloxy)benzenesulfonamide], for which the IC50 is > 10000 nM at Recombinant human MAO-B, < 1000 nM at Recombinant human DAO, < 100 nM on recombinant human VAP-1 and < 100 nM in assay [1]. For the same compound, the “neutrophil infiltration in the dorso-lateral striatum and hippocampus” value in assay [2] (30 h after first LPS injection) was “reduced”. Also, the “microglial cell recruitment and activation in the substantia nigra and dorso-lateral striatum” value in assay [2] (dendrites length, surface and volume) is “reduction”. In addition, the IL-6 levels entry in assay [3] (lavage supernatant) is reported as “diminution”. In addition, the TNF-α levels result in assay [3] (lavage supernatant) was “diminution”. Moreover, the neutrophil infiltration result in assay [3] (lung lavage six hours after LPS) was “significant reduction”.

In the case of `Cc1cc(OC/C(=C\F)CN)ccc1C(=O)N(C)C` [Compound 26, (Z)-4-(2-(Aminomethyl)-3-fluoroallyloxy)-N,N,2-trimethylbenzamide], the IC50 at Recombinant human MAO-B was > 1000 nM; on Recombinant human DAO, < 1000 nM; on recombinant human VAP-1 it was < 100 nM.

Consider `NC/C(=C/F)CCc1ccc(F)cc1` [Mofegiline, reference compound], for which the IC50 in assay [1] came out at 6 nM.

For `CNS(=O)(=O)c1ccc(OC/C(=C\F)CN)cc1` [Compound 29, (Z)-4-(2-(Aminomethyl)-3-fluoroallyloxy)-N-methylbenzenesulfonamide], the concentration for half-maximal inhibition (IC50) at Recombinant human MAO-B is > 10000 nM; at Recombinant human DAO, > 1000 nM; in assay [1], < 100 nM.

`CNC(=O)c1ccc(OC/C(=C/F)CN)cc1` [Compound 25, (E)-4-(2-(Aminomethyl)-3-fluoroallyloxy)-N-methylbenzamide]: the IC50 on Recombinant human MAO-B is > 1000 nM; on Recombinant human DAO, < 1000 nM; on recombinant human VAP-1, < 100 nM; in assay [1], < 100 nM.

With `NC/C(=C\F)COc1ccc(S(N)(=O)=O)cc1` [Compound 11, (E)-4-(2-(Aminomethyl)-3-fluoroallyloxy)benzenesulfonamide], the IC50 was > 10000 nM at Recombinant human MAO-B, > 10000 nM at Recombinant human DAO, < 100 nM on recombinant human VAP-1 and < 100 nM in assay [1].
